{"source": "paper PMC4226669", "about": "“Anti-cancer potency of tasquinimod is enhanced via albumin-binding facilitating increased uptake in the tumor microenvironment” (Oncotarget, 2014)", "key": {"[1]": {"experiment": "Nadir plasma concentration after 5 days oral dosing in C57Bl/6J mice", "type": "in vivo, mouse", "details": "5 mg/kg/day oral gavage, end of 5 days", "experimental": "To determine whether this chronic 5 mg/kg/day oral dosing regimen produces similar blood concentrations in mice as obtained in human trials, intact adult male C57Bl/6J mice (n=4) were given ^14C- radiolabeled tasquinimod via oral gavage and then the plasma concentration of drug at the end of 5 days determined based upon radioactivity levels."}, "[2]": {"experiment": "Tissue distribution and metabolites in nude mice bearing CWR-22Rv1 cancers", "type": "in vivo, mouse", "details": "for concentration at 4 h: male, nude, mouse", "experimental": "To determine the concentration of metabolites, nude mice bearing CWR-22Rv1 prostate cancers were orally administered with 5 mg/kg of ^14C- radiolabeled tasquinimod and 4 and 24 hours later, blood plasma and liver, kidney, and cancer tissue harvested and analyzed for determination of metabolites. […] The predominant metabolite is the O-demethylated quinoline compound, Figure 2A&B, but the concentration of the hydroxylated aromatic quinoline and the N-demethylated quinoline compounds, along with the O-demethylated quinoline compound are also higher in the liver than the blood at the time point studied, Figure 2B. Also in the kidney 40% of the drug is present as metabolites, with the concentration of the hydroxylated aromatic quinoline and the O-demethylated quinoline compounds being higher than in the blood, Figure 2B. In contrast, within the cancer > 80% of the total concentration of drug is present as parent tasquinimod, Figure 2B. Only the O-demethylated quinoline compound is present at a higher concentration in the cancer than blood, Figure 2B. The plasma concentration of total metabolites is < 10% at 4 hours, Figure 2B, and 24 hours post oral dosing with 5 mg/kg, Figure 2A.\nMale nude mice bearing 200-300mm^3 CWR-22Rv1 cancers were given ^14C-labeled tasquinimod at a dose of 5 mg/kg via oral gavage. At times ranging from 30 min to 24 hour, groups of 4-6 mice were anaesthetized with ketamine and 1 ml of heparinized blood collected by cardiac puncture, followed by subsequent cardiac perfusion of saline to remove blood associated drug. An aliquot of liver, kidney, and cancer was removed, weighed and then homogenized. The radioactivity in 10 μL aliquots of tissue homogenates and blood plasma was determined using a liquid scintillation counter and used to calculate the total amount of tasquinimod plus its metabolites per gram of tissue or per ml of blood. The remaining sample volume was deproteinated with acetonitrile and the radioactivity of an aliquot of the supernatant determined and the remaining supernatant lyophilized, resuspended initially with 0.1mL dimethyl sulfoxide and diluted by the addition of 0.9mL deionized water prior to injection into the HPLC. The HPLC system consisted of Waters pumps using a Waters gradient controller to deliver mobile phase at a flow rate of 1mL per minute using a Supelcosil ABZ+ C18 column that is 150mm long by 4.6mm diameter and has 5μm particle size. The metabolites were separated using a linear gradient in which the starting mobile phase was 35% acetonitrile: 65% water: 0.1% Trifluoroacetic acid (TFA) increasing to 50% acetonitrile: 50% water: 0.1%TFA over 25 minutes, and then increased rapidly to 98% acetonitrile: 2% water: 0.1%TFA and held until 33 minutes before it is returned to the initial conditions for the next run. Fractions were collected and the radioactivity determined by scintillation counting. As controls, the individual elution time of non-radiolabeled standard solutions of the various tasquinimod metabolites was determined using UV absorption at 215nm. The results were expressed as concentration based upon tissue volume, assuming 1gram wet weight equals 1ml, or normalized to tissue vascular volume."}, "[3]": {"test_system": "CWR-22RH human prostate cancer", "experiment": "Tumor take of CWR-22RH xenografts in castrated nude mice", "type": "in vivo, mouse", "details": "tasquinimod alone 10mg/kg/day via drinking water from inoculation", "experimental": "To confirm this conclusion, castrated male nude mice were xenografted with the castrate resistant CWR-22RH human prostate cancer tissue and the animals immediately randomized into groups (n=10) which were: 1) left untreated as controls; 2) given daily oral treatment with tasquinimod alone via the drinking water (10mg/kg/day); 3) given oral ketoconazole alone via oral gavage at a daily dose which inhibits cytochrome P450 3A4 (i.e., 25 mg/kg/day); or 4) given a combination of the two drugs. […] These combined in vitro/in vivo results document tasquinimod, not one of its metabolites, is the active drug.\nThe source, history, and characteristics of the human prostate cancer cell lines (i.e., LNCaP, LAPC4, and CWR-22Rv1 and the human umbilical vascular endothelial cells (HUVEC) used, as well as cell culture conditions for their in vitro maintenance and the in vivo protocol for their xenografting into immune-deficient nude male mice are as described previously. The source, history, and characteristics of the TRAMP-C2 mouse prostate cancer line, as well as cell culture conditions for their in vitro maintenance and the in vivo protocol for their growth in intact adult male syngeneic C57Bl/6J are as described previously. All lines were mycoplasma negative using the MycoSensor PCR Assay kit (Agilent Technologies) and genetically authenticated within the last 6 months using short tandem repeat profiling conducted by the Johns Hopkins Genetic Resource Core Facility. The source, history, and characteristics of the CWR-RH human prostate cancer xenograft are as described previously. In vitro growth curves were determined as described. Animal studies were conducted according to animal protocol MO09M434 approved by Johns Hopkins Animal Care and Use Committee. Daily drug dosing via oral gavage, the drinking water, or subcutaneous injection, as well as tumor volume measurements and determination of the blood vessel density within cancers, were as described previously. These experiments were repeated at 3 independent times for each xenograft."}, "[4]": {"test_system": "human umbilical vein endothelial cells (HUVECs)", "experiment": "3D in vitro endothelial sprouting and tube formation assay", "type": "cell-based", "text": "A three-dimensional (3D) in vitro endothelial sprouting and tube formation assay was utilized to define the anti-angiogenic potency of tasquinimod vs. these metabolites. In this 3D assay, human umbilical endothelial cells (i.e., HUVECs) are initially grown on microcarrier beads and the cell coated beads embedded in fibrin gels with media conditioned by normal human lung fibroblasts. Under these 3D-conditions, endothelial cells “sprout” producing 3D neovessel tubes with patent lumen within one week, Figure 4A - left panel. When tasquinimod is added at the initiation to these 3D-cultures, sprouting of the endothelial cells is inhibited, Figure 4B-right panel, with the potency for such inhibition, expressed as an IC50 value (i.e., the concentration of drug which inhibits by 50% the endothelial sprouting) of 0.5 μM, Figure 4C. […] Using this 3D-HUVEC assay, the potency (i.e., expressed as IC50) of tasquinimod metabolites to inhibit endothelial sprouting was compared to tasquinimod. […] To further confirm that tasquinimod itself and not the carboxamide-N-demethylated metabolite is the active drug, the response to ketoconazole alone and in combination with tasquinimod was tested in the 3D-endothelial sprouting assay.\nThe 3-dimensional (3D) in vitro angiogenic sprouting and tube formation assay was used as described previously. This 3D-endothelial sprouting assay was conducted using a minimum of 5 replicate wells per drug dose per experiment, repeated 3 independent times using human umbilical vein endothelial cells (HUVECs; Lonza Walkersville, Inc.) with modification that 20 μL of 10X concentrated Dulbecco's Modified Eagle's Media/10%FCS media conditioned by confluent human primary lung fibroblasts (Lonza) diluted to 200 μL of growth factor supplemented EGM-2 media (Lonza) was used instead of fibroblast co-culture."}}, "note": "Read-outs that look alike come from different tables or passages of the source.", "data": [{"compound": "COc1cccc2c1c(O)c(C(=O)N(C)c1ccc(C(F)(F)F)cc1)c(=O)n2C", "note": "[Tasquinimod]", "values": [{"measurement": "nadir plasma concentration", "setting": "[1]", "result": "1.08 ± 0.21", "unit": "µM"}, {"measurement": "prostate cancer tissue concentration relative to liver or kidney, normalized to percent vascular volume", "setting": "[2]; 5 mg/kg oral", "result": "3-5 fold"}, {"measurement": "time to maximum total drug concentration in liver, kidney and cancer", "setting": "[2]; 5 mg/kg oral, CWR-22Rv1 tumor bearing mice", "result": "≤ 5", "unit": "h"}, {"measurement": "total drug within the cancer present as parent tasquinimod", "setting": "[2]; CWR-22Rv1 cancer, 4 hours post 5 mg/kg oral", "result": "> 80", "unit": "%"}, {"measurement": "percentage of total drug in CWR-22Rv1 cancer", "setting": "[2]; CWR-22Rv1 cancer, 4 hours post oral 5mg/kg tasquinimod", "result": "83+/-6%"}, {"measurement": "percentage of total drug in kidney", "setting": "[2]; kidney, 4 hours post oral 5mg/kg tasquinimod", "result": "60+/-7%"}, {"measurement": "percentage of total drug in liver", "setting": "[2]; liver, 4 hours post oral 5mg/kg tasquinimod", "result": "29+/-5%"}, {"measurement": "concentration at 4 h", "setting": "[2]; CWR-22Rv1 cancer tissue, CWR-22Rv1 cancer, 4 hours post oral 5mg/kg tasquinimod, 1gm tissue = 1ml, read-out: concentration in CWR-22Rv1 cancer", "result": 2.24, "unit": "µM"}, {"measurement": "concentration at 4 h", "setting": "[2]; kidney, 4 hours post oral 5mg/kg tasquinimod, 1gm tissue = 1ml, read-out: concentration in kidney", "result": 2.3, "unit": "µM"}, {"measurement": "concentration at 4 h", "setting": "[2]; liver, 4 hours post oral 5mg/kg tasquinimod, 1gm tissue = 1ml, read-out: concentration in liver", "result": 3.77, "unit": "µM"}, {"measurement": "concentration at 4 h", "setting": "[2]; plasma, 4 hours post oral 5mg/kg tasquinimod, read-out: concentration in plasma", "result": 5.58, "unit": "µM"}, {"measurement": "percentage of total drug in plasma", "setting": "[2]; plasma, 4 hours post oral 5mg/kg tasquinimod", "result": "93+/-6%"}, {"measurement": "tumor take and subsequent malignant growth", "setting": "[3]", "result": "prevents tumor take"}, {"measurement": "sprouting of HUVEC cells in 3-D culture", "setting": "[4]; 1μM, 5 days co-treatment with conditioned media from fibroblasts", "result": "Lack of sprouting"}, {"measurement": "IC50", "setting": "[4]; Homo sapiens, HUVEC, 3D-HUVEC sprouting assay, read-out: IC50 (concentration of drug which inhibits by 50% the endothelial sprouting)", "result": "~500", "unit": "nM"}]}]}
